Active and inactive are the calls of the source. No cut-off for these calls is given here.
Key:
[1] = target: Serine/threonine-protein kinase B-raf (Homo sapiens) (UniProt P15056); assay: Inhibition of human BRAF at 0.1 uM using MEK1 (K97R) as substrate in presence of [gamma-33P]-ATP by radiometric assay relative to control
[2] = target: Receptor-type tyrosine-protein kinase FLT3 (Homo sapiens) (UniProt P36888); details: dose 10.0 nM
[3] = target: T1, Macrophage colony-stimulating factor 1 receptor (Mus musculus) (UniProt P09581); assay: Inhibition of CSF1R phosphorylation in mouse RAW 264.7 cells at 10 to 100 nM preincubated for 5 hrs followed by CSF stimulation for 10 mins by Western blot analysis; type: cell-based; details: RAW264.7, dose 10-100 nM, time 310.0 min
T1 sequence (whole entry): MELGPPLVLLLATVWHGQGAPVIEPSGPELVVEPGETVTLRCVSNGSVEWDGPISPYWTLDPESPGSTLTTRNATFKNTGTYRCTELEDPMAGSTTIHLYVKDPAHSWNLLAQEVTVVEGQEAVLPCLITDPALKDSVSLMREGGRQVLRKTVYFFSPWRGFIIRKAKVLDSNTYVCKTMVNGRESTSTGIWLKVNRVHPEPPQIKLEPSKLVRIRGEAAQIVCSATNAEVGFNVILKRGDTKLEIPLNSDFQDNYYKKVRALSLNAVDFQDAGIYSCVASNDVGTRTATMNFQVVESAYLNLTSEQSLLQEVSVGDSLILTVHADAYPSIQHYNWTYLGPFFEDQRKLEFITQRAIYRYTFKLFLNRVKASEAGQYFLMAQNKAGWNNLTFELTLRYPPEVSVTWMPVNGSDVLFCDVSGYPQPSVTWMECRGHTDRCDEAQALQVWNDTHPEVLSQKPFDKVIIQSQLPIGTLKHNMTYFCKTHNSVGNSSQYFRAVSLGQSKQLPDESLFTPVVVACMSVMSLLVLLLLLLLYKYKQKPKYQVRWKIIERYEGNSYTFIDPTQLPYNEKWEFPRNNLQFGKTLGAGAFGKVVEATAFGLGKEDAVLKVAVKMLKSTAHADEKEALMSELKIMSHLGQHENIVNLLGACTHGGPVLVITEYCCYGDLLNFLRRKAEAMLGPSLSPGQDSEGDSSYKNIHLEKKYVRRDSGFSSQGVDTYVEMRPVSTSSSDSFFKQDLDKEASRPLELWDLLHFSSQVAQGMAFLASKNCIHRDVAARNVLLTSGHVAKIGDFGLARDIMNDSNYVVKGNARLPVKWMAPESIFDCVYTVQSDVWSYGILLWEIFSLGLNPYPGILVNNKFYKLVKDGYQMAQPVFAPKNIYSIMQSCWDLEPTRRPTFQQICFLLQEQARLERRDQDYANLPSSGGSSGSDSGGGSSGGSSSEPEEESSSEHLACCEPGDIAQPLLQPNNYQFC

[4] = target: ALK tyrosine kinase receptor (Homo sapiens) (UniProt Q9UM73); assay: Inhibition of human ALK at 0.1 uM using poly[Glu:Tyr] (4:1) as substrate in presence of [gamma-33P]-ATP by radiometric assay relative to control
[5] = target: Epidermal growth factor receptor (Homo sapiens) (UniProt P00533); assay: Inhibition of human EGFR at 0.1 uM using poly[Glu:Tyr] (4:1) as substrate in presence of [gamma-33P]-ATP by radiometric assay relative to control
Chain of Epidermal growth factor receptor (Homo sapiens) (P00533 whole entry): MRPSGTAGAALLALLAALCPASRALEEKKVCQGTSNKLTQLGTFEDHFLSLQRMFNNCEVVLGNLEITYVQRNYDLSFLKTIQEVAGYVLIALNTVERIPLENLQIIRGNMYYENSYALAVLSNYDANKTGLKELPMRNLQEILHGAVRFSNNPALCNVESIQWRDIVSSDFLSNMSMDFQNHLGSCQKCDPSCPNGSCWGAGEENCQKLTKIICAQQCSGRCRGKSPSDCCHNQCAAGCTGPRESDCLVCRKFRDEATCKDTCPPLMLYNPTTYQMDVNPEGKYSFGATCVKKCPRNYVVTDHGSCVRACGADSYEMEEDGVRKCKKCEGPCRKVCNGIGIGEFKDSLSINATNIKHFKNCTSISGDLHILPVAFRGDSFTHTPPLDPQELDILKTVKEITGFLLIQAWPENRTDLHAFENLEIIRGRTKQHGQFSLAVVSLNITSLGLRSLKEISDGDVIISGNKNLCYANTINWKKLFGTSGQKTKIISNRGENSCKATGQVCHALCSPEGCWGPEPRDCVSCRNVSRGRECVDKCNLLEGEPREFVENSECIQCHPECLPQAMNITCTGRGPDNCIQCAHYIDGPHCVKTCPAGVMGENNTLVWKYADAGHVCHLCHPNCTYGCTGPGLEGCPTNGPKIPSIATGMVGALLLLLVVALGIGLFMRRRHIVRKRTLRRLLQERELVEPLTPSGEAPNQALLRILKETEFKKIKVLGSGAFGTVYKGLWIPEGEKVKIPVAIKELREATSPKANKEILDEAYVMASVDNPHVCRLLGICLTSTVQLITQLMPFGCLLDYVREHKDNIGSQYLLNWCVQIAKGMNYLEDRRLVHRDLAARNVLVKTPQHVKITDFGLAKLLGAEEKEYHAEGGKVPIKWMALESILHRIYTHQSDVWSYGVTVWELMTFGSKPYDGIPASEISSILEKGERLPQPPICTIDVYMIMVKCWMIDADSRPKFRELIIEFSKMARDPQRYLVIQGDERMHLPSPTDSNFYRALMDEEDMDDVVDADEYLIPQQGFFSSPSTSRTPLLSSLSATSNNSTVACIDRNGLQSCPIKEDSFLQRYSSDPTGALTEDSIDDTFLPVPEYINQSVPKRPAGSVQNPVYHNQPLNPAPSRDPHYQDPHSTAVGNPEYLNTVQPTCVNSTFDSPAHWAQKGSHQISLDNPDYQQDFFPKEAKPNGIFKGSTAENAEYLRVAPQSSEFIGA

[6] = target: Mast/stem cell growth factor receptor Kit (Homo sapiens) (UniProt P10721); details: dose 100.0 nM
Chain of Mast/stem cell growth factor receptor Kit (Homo sapiens) (P10721 whole entry): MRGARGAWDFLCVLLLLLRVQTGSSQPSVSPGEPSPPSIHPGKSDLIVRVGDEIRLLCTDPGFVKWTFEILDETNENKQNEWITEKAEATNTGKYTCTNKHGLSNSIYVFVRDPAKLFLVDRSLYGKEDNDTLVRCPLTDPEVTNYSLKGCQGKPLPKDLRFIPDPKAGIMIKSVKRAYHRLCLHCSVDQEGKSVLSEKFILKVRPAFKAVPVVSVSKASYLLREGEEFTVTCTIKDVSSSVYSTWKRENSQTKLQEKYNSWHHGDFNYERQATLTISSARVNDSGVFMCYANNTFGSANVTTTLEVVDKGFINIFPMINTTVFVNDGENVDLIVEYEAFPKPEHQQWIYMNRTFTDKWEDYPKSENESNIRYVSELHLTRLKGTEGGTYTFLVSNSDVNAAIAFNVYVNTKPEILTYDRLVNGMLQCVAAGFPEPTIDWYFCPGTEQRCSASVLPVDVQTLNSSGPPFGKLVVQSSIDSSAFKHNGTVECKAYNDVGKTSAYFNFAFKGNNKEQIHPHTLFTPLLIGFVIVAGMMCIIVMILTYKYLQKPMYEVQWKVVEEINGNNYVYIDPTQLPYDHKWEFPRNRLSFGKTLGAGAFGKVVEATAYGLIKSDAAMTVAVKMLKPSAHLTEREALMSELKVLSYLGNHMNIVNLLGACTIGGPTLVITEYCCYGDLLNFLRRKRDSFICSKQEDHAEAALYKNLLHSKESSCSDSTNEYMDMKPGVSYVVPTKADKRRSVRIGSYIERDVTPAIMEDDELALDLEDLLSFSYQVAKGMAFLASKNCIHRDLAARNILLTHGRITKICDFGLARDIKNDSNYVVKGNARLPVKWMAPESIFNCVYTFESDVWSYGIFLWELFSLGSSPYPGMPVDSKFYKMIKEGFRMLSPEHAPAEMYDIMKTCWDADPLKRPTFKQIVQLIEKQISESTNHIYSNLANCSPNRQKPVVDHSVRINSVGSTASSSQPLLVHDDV
Description: Inhibition of human c-KIT at 100 nM using poly[Glu:Tyr] (4:1) as substrate in presence of [gamma-33P]-ATP by radiometric assay relative to control

[7] = target: T2, Tyrosine-protein kinase JAK3 (Homo sapiens) (UniProt P52333); assay: Inhibition of human JAK3 at 0.1 uM using GGEEEEYFELVKKKK as substrate in presence of [gamma-33P]-ATP by radiometric assay relative to control
T2 sequence (whole entry): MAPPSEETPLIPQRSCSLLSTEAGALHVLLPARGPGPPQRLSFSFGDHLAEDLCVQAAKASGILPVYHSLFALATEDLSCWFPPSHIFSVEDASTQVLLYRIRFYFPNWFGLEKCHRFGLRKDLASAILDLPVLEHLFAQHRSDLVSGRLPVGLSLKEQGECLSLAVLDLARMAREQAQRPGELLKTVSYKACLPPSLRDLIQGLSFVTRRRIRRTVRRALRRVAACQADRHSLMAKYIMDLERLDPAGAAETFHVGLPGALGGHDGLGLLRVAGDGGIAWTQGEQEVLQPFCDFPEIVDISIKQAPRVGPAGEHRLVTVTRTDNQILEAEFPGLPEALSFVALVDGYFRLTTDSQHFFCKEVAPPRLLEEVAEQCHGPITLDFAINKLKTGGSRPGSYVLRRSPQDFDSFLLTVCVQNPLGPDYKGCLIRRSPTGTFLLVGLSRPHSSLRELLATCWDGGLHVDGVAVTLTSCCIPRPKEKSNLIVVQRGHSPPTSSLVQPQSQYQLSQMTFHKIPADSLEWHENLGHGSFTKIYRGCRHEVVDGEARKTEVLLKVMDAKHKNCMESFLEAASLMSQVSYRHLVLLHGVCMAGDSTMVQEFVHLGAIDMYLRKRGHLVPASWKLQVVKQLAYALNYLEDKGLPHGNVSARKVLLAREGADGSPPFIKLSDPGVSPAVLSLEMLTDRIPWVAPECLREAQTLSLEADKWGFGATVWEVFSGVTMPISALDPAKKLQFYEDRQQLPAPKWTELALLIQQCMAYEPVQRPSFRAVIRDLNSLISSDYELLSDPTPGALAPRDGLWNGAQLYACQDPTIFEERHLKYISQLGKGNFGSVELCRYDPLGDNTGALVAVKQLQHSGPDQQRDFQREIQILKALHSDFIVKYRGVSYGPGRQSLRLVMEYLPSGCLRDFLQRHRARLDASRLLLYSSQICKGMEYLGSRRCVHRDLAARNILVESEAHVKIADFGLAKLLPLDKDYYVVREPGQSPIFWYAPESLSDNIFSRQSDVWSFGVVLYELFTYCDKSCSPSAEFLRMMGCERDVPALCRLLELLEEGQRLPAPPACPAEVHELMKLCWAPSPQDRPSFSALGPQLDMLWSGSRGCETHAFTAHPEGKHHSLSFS

[8] = target: Macrophage colony-stimulating factor 1 receptor (Homo sapiens) (UniProt P07333); details: dose 100.0 nM
Chain of Macrophage colony-stimulating factor 1 receptor (Homo sapiens) (P07333 whole entry): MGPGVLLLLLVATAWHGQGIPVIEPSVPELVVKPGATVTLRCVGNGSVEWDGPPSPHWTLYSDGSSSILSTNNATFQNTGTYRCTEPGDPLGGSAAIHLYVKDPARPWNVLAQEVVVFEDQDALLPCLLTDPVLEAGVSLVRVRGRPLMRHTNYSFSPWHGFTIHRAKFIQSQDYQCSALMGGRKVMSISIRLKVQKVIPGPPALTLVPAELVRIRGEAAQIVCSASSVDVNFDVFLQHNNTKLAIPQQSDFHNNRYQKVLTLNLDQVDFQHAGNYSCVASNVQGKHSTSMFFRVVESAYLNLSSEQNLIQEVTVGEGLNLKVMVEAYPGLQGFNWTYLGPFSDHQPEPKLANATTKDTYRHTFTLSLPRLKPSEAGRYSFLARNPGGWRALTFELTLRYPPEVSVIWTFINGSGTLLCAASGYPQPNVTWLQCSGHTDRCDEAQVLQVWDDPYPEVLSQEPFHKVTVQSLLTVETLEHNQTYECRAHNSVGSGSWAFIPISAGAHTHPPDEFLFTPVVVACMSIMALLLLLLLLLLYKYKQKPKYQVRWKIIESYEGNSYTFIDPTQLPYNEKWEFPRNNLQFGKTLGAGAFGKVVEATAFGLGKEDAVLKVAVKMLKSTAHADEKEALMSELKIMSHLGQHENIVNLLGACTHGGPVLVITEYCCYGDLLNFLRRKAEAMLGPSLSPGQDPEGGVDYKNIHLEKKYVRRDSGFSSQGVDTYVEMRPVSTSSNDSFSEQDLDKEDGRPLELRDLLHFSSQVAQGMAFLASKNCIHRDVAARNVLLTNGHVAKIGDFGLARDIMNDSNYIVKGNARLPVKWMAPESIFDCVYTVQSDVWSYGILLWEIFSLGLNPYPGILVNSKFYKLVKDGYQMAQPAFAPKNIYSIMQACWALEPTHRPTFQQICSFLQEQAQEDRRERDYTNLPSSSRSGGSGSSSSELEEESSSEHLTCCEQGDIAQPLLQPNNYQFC
Description: Inhibition of human CSF1R at 100 nM using poly[Glu:Tyr] (4:1) as substrate in presence of [gamma-33P]-ATP by radiometric assay relative to control

[9] = target: Mast/stem cell growth factor receptor Kit (Homo sapiens) (UniProt P10721); details: dose 10.0 nM
Description: Inhibition of human c-KIT at 10 nM using poly[Glu:Tyr] (4:1) as substrate in presence of [gamma-33P]-ATP by radiometric assay relative to control

[10] = target: Macrophage colony-stimulating factor 1 receptor (Homo sapiens) (UniProt P07333); details: dose 10.0 nM
Description: Inhibition of human CSF1R at 10 nM using poly[Glu:Tyr] (4:1) as substrate in presence of [gamma-33P]-ATP by radiometric assay relative to control

[11] = target: Tyrosine-protein kinase Lyn (Homo sapiens) (UniProt P07948); assay: Inhibition of human LYN at 0.1 uM using poly[Glu:Tyr] (4:1) as substrate in presence of [gamma-33P]-ATP by radiometric assay relative to control
[12] = target: Tyrosine-protein kinase ABL1 (Homo sapiens) (UniProt P00519); assay: Inhibition of human ABL1 at 0.1 uM using EAIYAAPFAKKK as substrate in presence of [gamma-33P]-ATP by radiometric assay relative to control
[13] = target: Dual specificity mitogen-activated protein kinase kinase 1 (Homo sapiens) (UniProt Q02750); assay: Inhibition of human MEK1 at 0.1 uM using ERK2 (K52R) as substrate in presence of [gamma-33P]-ATP by radiometric assay relative to control
Chain of Dual specificity mitogen-activated protein kinase kinase 1 (Homo sapiens) (Q02750 whole entry): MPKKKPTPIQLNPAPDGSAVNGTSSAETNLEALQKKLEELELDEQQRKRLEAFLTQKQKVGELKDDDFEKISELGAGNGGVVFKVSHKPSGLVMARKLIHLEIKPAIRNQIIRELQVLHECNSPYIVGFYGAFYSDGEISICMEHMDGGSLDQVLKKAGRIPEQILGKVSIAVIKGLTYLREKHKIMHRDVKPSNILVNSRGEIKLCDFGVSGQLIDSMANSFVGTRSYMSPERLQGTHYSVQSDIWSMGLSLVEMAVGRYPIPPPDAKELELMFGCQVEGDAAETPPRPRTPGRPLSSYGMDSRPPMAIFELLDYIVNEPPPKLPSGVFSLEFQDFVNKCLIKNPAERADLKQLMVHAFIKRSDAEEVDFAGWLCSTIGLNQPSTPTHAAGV

[14] = target: Non-receptor tyrosine-protein kinase TYK2 (Homo sapiens) (UniProt P29597); assay: Inhibition of human TYK2 at 0.1 uM using KKSRGDYMTMQIG as substrate in presence of [gamma-33P]-ATP by radiometric assay relative to control
[15] = target: Tyrosine-protein kinase Lck (Homo sapiens) (UniProt P06239); assay: Inhibition of human LCK at 0.1 uM using poly[Glu:Tyr] (4:1) as substrate jn presence of [gamma-33P]-ATP by radiometric assay relative to control
[16] = target: Mitogen-activated protein kinase 1 (Homo sapiens) (UniProt P28482); assay: Inhibition of human ERK2 at 0.1 uM using MBP as substrate in presence of [gamma-33P]-ATP by radiometric assay relative to control
Chain of Mitogen-activated protein kinase 1 (Homo sapiens) (P28482 whole entry): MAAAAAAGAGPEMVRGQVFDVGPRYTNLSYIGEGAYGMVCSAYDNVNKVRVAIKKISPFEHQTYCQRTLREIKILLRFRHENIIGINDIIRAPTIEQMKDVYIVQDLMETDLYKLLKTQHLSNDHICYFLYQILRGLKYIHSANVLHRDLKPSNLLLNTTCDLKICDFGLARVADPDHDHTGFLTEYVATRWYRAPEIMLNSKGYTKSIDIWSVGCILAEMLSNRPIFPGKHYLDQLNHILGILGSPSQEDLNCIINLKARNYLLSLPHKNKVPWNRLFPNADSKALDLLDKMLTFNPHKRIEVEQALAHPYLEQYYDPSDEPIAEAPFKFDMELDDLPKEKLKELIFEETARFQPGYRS

Homo sapiens = species: Homo sapiens; assay: Inhibition of human PKA at 0.1 uM using LCGRTGRRNSI as substrate in presence of [gamma-33P]-ATP by radiometric assay relative to control
[17] = target: Tyrosine-protein kinase JAK2 (Homo sapiens) (UniProt O60674); assay: Inhibition of human JAK2 at 0.1 uM using poly[Glu:Tyr] (4:1) as substrate in presence of [gamma-33P]-ATP by radiometric assay relative to control
[18] = target: Receptor-type tyrosine-protein kinase FLT3 (Homo sapiens) (UniProt P36888); details: dose 100.0 nM

Chain of Receptor-type tyrosine-protein kinase FLT3 (Homo sapiens) (P36888 whole entry): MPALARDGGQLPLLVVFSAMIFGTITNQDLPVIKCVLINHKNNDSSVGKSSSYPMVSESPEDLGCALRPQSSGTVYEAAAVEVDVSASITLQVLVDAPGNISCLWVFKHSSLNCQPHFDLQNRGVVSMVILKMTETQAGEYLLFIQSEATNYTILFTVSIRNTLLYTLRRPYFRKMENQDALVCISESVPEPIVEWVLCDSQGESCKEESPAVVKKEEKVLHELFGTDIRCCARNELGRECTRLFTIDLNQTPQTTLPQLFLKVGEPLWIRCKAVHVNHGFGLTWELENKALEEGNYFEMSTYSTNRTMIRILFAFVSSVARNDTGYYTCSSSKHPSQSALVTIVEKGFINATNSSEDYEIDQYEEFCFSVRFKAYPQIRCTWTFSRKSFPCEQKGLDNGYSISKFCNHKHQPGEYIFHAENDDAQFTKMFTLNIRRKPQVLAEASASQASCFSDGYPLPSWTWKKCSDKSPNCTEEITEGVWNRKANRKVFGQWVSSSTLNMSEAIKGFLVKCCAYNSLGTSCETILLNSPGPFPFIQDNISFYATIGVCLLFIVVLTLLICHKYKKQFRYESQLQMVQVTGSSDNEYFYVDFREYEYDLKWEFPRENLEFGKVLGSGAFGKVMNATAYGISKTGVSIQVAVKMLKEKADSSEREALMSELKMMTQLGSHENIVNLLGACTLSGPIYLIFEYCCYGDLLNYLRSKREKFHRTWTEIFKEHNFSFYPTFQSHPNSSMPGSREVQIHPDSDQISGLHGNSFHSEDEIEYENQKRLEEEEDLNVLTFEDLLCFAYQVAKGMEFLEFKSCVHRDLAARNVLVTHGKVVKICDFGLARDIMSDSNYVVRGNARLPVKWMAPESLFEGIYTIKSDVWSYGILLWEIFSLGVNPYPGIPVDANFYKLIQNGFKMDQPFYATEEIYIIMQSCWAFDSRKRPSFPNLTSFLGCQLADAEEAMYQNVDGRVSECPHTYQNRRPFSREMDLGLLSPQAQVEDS

Cc1ccc(NC(=O)c2ccc(C(F)(F)F)nc2)cc1NC(=O)c1cnc2ccccn12
inhibition [1]: 39% | inhibition [2]: 3% | inhibition [3]: Active | inhibition [4]: 41% | inhibition [5]: 60% | inhibition [6]: 58% | inhibition [7]: 0% | inhibition [8]: 97% | inhibition [9]: 35% | inhibition [10]: 87% | inhibition [11]: 93% | inhibition [12]: 79% | inhibition [13]: 30% | inhibition [14]: 16% | inhibition [15]: 75% | inhibition [16]: 0% | inhibition (Homo sapiens): 42% | inhibition [17]: 0% | inhibition [18]: 4%
